Patent US4869900A, “Pharamaceutical composition containing ubidecarenone” (Zambon S.p.A., priority 1985, dated 1989)

Key:
[1] = test system: cardiac affections such as cardiac deficiency, ischemic disease; settings: treatment of several cardiac affections such as cardiac deficiency; cited from earlier work
[2] = Stability of CoQ10 in the compositions (one year at 30° C.); type: physicochemical; settings: after one year at 30° C., in the compositions or pharmaceutical preparations according to the invention
[3] = takes place through the lymphatic system; cited from earlier work

## COC1=C(OC)C(=O)C(C/C=C(\C)CC/C=C(\C)CC/C=C(\C)CC/C=C(\C)CC/C=C(\C)CC/C=C(\C)CC/C=C(\C)CC/C=C(\C)CC/C=C(\C)CCC=C(C)C)=C(C)C1=O [CoQ10, Coenzyme Q10]
[1]
  clinical effectiveness: clinically effective
[2]
  degradation of CoQ10: no degradation
[3]
  absorption: scarce
